# Test results as given in patent US11440914B2, “Tricyclic amine compounds as CDK2 inhibitors” (Incyte Corporation, priority 2019, dated 2022).
# Target: CDK2/Cyclin E1 (Homo sapiens (Human), UniProt P24941)
# Experiment: CDK2/Cyclin E1 HTRF enzyme activity assay
# Assay type: biochemical
# Conditions: 1 mM ATP
# Experimental: CDK2/Cyclin E1 enzyme activity assays utilize full-length human CDK2 co-expressed as N-terminal GST-tagged protein with FLAG-Cyclin E1 in a baculovirus expression system (Carna Product Number 04-165). Assays are conducted in white 384-well polystyrene plates in a final reaction volume of 8 μL. CDK2/Cyclin E1 (0.25 nM) is incubated with compounds (40 nL serially diluted in DMSO) in the presence of ATP (50 μM or 1 mM) and 50 nM ULight™-labeled eIF4E-binding protein 1 (THR37/46) peptide (PerkinElmer) in assay buffer (containing 50 mM HEPES pH 7.5, 1 mM EGTA, 10 mM MgCl2, 2 mM DTT, 0.05 mg/ml BSA, and 0.01% Tween 20) for 60 minutes at room temperature. The reactions are stopped by the addition of EDTA and Europium-labeled anti-phospho-4E-BP1 antibody (PerkinElmer), for a final concentration of 15 mM and 1.5 nM, respectively. HTRF signals are read after 1 hour at room temperature on a PHERAstar FS plate reader (BMG Labtech). Data is analyzed with IDBS XLFit and GraphPad Prism 5.0 software using a three or four parameter dose response curve to determine IC50 for each compound.
row,IC50,Structure (SMILES)
1,≤ 50 nM,"CCS(=O)(=O)N1CCC(Nc2ncc3c(n2)-c2c(nc(C)n2C)CC3)CC1 [Example 1, N-(1-(Ethylsulfonyl)piperidin-4-yl)-1,2-dimethyl-4,5-dihydro-1H-imidazo[4,5-h]quinazolin-8-amine]"
2,≤ 50 nM,"Cc1nc2c(n1C)-c1nc(NC3CCN(S(=O)(=O)C4CC4)CC3)ncc1CC2 [Example 2, N-(1-(Cyclopropylsulfonyl)piperidin-4-yl)-1,2-dimethyl-4,5-dihydro-1H-imidazo[4,5-h]quinazolin-8-amine]"
3,≤ 50 nM,"Cc1nc2c(n1C)-c1nc(NC3CCN(S(=O)(=O)c4cnn(C)c4)CC3)ncc1CC2 [Example 3, 1,2-Dimethyl-N-(1-((1-methyl-1H-pyrazol-4-yl)sulfonyl)piperidin-4-yl)-4,5-dihydro-1H-imidazo[4,5-h]quinazolin-8-amine]"
4,≤ 50 nM,"Cc1nc2c(n1C)-c1nc(NC3CCN(S(=O)(=O)c4cn[nH]c4)CC3)ncc1CC2 [Example 4, N-(1-((1H-Pyrazol-4-yl)sulfonyl)piperidin-4-yl)-1,2-dimethyl-4,5-dihydro-1H-imidazo[4,5-h]quinazolin-8-amine]"
5,≤ 50 nM,"Cc1nc2c(n1C)-c1nc(NC3CCN(S(=O)(=O)c4cccc(C#N)c4)CC3)ncc1CC2 [Example 5, 3-((4-((1,2-Dimethyl-4,5-dihydro-1H-imidazo[4,5-h]quinazolin-8-yl)amino)piperidin-1-yl)sulfonyl)benzonitrile]"
6,≤ 50 nM,"Cc1nc(S(=O)(=O)N2CCC(Nc3ncc4c(n3)-c3c(nc(C)n3C)CC4)CC2)cn1C [Example 6, N-(1-((1,2-Dimethyl-1H-imidazol-4-yl)sulfonyl)piperidin-4-yl)-1,2-dimethyl-4,5-dihydro-1H-imidazo[4,5-h]quinazolin-8-amine]"
7,50 to 200 nM,"Cc1nc2c([nH]1)-c1nc(NC3CCN(S(C)(=O)=O)CC3)ncc1CC2 [Example 7, 2-Methyl-N-(1-(methylsulfonyl)piperidin-4-yl)-4,5-dihydro-1H-imidazo[4,5-h]quinazolin-8-amine]"
8,≤ 50 nM,"Cc1nc2c(n1Cc1ccccc1)-c1nc(NC3CCN(S(C)(=O)=O)CC3)ncc1CC2 [Example 8, 1-Benzyl-2-methyl-N-(1-(methylsulfonyl)piperidin-4-yl)-4,5-dihydro-1H-imidazo[4,5-h]quinazolin-8-amine]"
9,50 to 200 nM,"Cn1cc2c(n1)CCc1cnc(NC3CCN(S(C)(=O)=O)CC3)nc1-2 [Example 9, 8-Methyl-N-(1-(methylsulfonyl)piperidin-4-yl)-6,8-dihydro-5H-pyrazolo[3,4-h]quinazolin-2-amine]"
10,200 to 500 nM,"Cn1cc2c(n1)COc1cnc(NC3CCN(S(C)(=O)=O)CC3)nc1-2 [Example 10, 8-Methyl-N-(1-(methylsulfonyl)piperidin-4-yl)-6,8-dihydropyrazolo[4′,3′:4,5]pyrano[3,2-d]pyrimidin-2-amine]"
11,≤ 50 nM,"Cc1c2c(nn1-c1c(F)cccc1F)CCc1cnc(NC3CCN(S(C)(=O)=O)CC3)nc1-2 [Example 11, 8-(2,6-Difluorophenyl)-9-methyl-N-(1-(methylsulfonyl)piperidin-4-yl)-6,8-dihydro-5H-pyrazolo[3,4-h]quinazolin-2-amine]"
12,≤ 50 nM,"Cn1nc2c(c1C1CC1)-c1nc(NC3CCN(S(C)(=O)=O)CC3)ncc1CC2 [Example 12, 9-Cyclopropyl-8-methyl-N-(1-(methylsulfonyl)piperidin-4-yl)-6,8-dihydro-5H-pyrazolo[3,4-h]quinazolin-2-amine]"
13,≤ 50 nM,"CC(C)c1c2c(nn1C)CCc1cnc(NC3CCN(S(C)(=O)=O)CC3)nc1-2 [Example 13, 9-Isopropyl-8-methyl-N-(1-(methylsulfonyl)piperidin-4-yl)-6,8-dihydro-5H-pyrazolo[3,4-h]quinazolin-2-amine]"
14,≤ 50 nM,"CS(=O)(=O)N1CCC(Nc2ncc3c(n2)-c2c(nn(C4CCOC4)c2C2CC2)CC3)CC1 (stereo not shown) [Example 14, 9-Cyclopropyl-N-(1-(methylsulfonyl)piperidin-4-yl)-8-(tetrahydrofuran-3-yl)-6,8-dihydro-5H-pyrazolo[3,4-h]quinazolin-2-amine]"
15,≤ 50 nM,"CS(=O)(=O)N1CCC(Nc2ncc3c(n2)-c2c(nn(CCO)c2C2CC2)CC3)CC1 [Example 15, 2-(9-Cyclopropyl-2-((1-(methylsulfonyl)piperidin-4-yl)amino)-5,6-dihydro-8H-pyrazolo[3,4-h]quinazolin-8-yl)ethan-1-ol]"
16,≤ 50 nM,"CS(=O)(=O)N1CCC(Nc2ncc3c(n2)-c2c(nn(C4CC4)c2C2CC2)CC3)CC1 [Example 16, 8,9-Dicyclopropyl-N-(1-(methylsulfonyl)piperidin-4-yl)-6,8-dihydro-5H-pyrazolo[3,4-h]quinazolin-2-amine]"
17,≤ 50 nM,"Cc1nc2c(n1C)-c1nc(NC3CCN(S(C)(=O)=O)CC3)ncc1CC2 [Example 17, 1,2-Dimethyl-N-(1-(methylsulfonyl)piperidin-4-yl)-4,5-dihydro-1H-imidazo[4,5-h]quinazolin-8-amine]"
18,≤ 50 nM,"CC(C)c1nc2c(n1C)-c1nc(NC3CCN(S(C)(=O)=O)CC3)ncc1CC2 [Example 18, 2-Isopropyl-1-methyl-N-(1-(methylsulfonyl)piperidin-4-yl)-4,5-dihydro-1H-imidazo[4,5-h]quinazolin-8-amine]"
19,≤ 50 nM,"Cc1nc2c(n1C1CC1)-c1nc(NC3CCN(S(C)(=O)=O)CC3)ncc1CC2 [Example 19, 1-Cyclopropyl-2-methyl-N-(1-(methylsulfonyl)piperidin-4-yl)-4,5-dihydro-1H-imidazo[4,5-h]quinazolin-8-amine]"
20,≤ 50 nM,"CS(=O)(=O)N1CCC(Nc2ncc3c(n2)-c2c(ncn2C2CC2)CC3)CC1 [Example 20, 1-Cyclopropyl-N-(1-(methylsulfonyl)piperidin-4-yl)-4,5-dihydro-1H-imidazo[4,5-h]quinazolin-8-amine]"
21,≤ 50 nM,"CS(=O)(=O)N1CCC(Nc2ncc3c(n2)-c2c(nc(Br)n2C2CC2)CC3)CC1 [Example 21, 2-Bromo-1-cyclopropyl-N-(1-(methylsulfonyl)piperidin-4-yl)-4,5-dihydro-1H-imidazo[4,5-h]quinazolin-8-amine]"
22,≤ 50 nM,"CS(=O)(=O)N1CCC(Nc2ncc3c(n2)-c2c(nc(-c4ccccc4)n2C2CC2)CC3)CC1 [Example 22, 1-Cyclopropyl-N-(1-(methylsulfonyl)piperidin-4-yl)-2-phenyl-4,5-dihydro-1H-imidazo[4,5-h]quinazolin-8-amine]"
23,≤ 50 nM,"CS(=O)(=O)N1CCC(Nc2ncc3c(n2)-c2c(nc(-c4ccccc4F)n2C2CC2)CC3)CC1 [Example 23, 1-Cyclopropyl-2-(2-fluorophenyl)-N-(1-(methylsulfonyl)piperidin-4-yl)-4,5-dihydro-1H-imidazo[4,5-h]quinazolin-8-amine]"
24,≤ 50 nM,"Cc1nn(C)cc1-c1nc2c(n1C1CC1)-c1nc(NC3CCN(S(C)(=O)=O)CC3)ncc1CC2 [Example 24, 1-Cyclopropyl-2-(1,3-dimethyl-1H-pyrazol-4-yl)-N-(1-(methylsulfonyl)piperidin-4-yl)-4,5-dihydro-1H-imidazo[4,5-h]quinazolin-8-amine]"
25,≤ 50 nM,"Cc1nc2c(n1C1CC1)-c1nc(NC3CCN(S(C)(=O)=O)CC3)ncc1CC2(C)C [Example 25, 1-Cyclopropyl-2,4,4-trimethyl-N-(1-(methylsulfonyl)piperidin-4-yl)-4,5-dihydro-1H-imidazo[4,5-h]quinazolin-8-amine]"
